Experimental findings from patent US9084420B2, “Amide derivative, pest control agent containing the amide derivative, and pest controlling method” (Mitsui Chemicals Agro, Inc., priority 2008, dated 2015) are described below.

Format in all cases: in vivo
The subject of one test is Spodoptera litura. As to the kind of experiment: Pesticidal test against Spodoptera litura (cabbage leaf immersion). The settings on record: 144 h, 2-stage larvae on treated cabbage leaf, 25° C., after 6 days, read-out: pesticidal rate. How it is done:
Pesticidal Test Against Spodoptera litura A piece of a cabbage leaf was immersed for 30 seconds in a chemical solution in which a test compound had been diluted at a predetermined concentration, and air-dried, and then put into a 7 cm polyethylene cup having a filter paper laid on the bottom thereof, and 2-stage larvae of Spodoptera litura were released. They were left to stand in a thermostatic chamber at 25° C., and the numbers of the living pests and the dead pests were examined after 6 days. The test was carried out with five larvae per group in two replicates.

For a further test, the system named is Plutella xylostella. As to the kind of experiment: Pesticidal test against Plutella xylostella (cabbage leaf immersion). The settings on record: 144 h, 3-stage larvae on treated cabbage leaf, 25° C., after 6 days, read-out: pesticidal rate. As for the experimental part:
Pesticidal Test Against Plutella xylostella A piece of a cabbage leaf was immersed for 30 seconds in a chemical solution in which a test compound had been diluted at a predetermined concentration, and air-dried, and then put into a 7 cm polyethylene cup having a filter paper laid on the bottom thereof, and 3-stage larvae of Plutella xylostella were released. They were left to stand in a thermostatic chamber at 25° C., and the numbers of the living pests and the dead pests were examined after 6 days. The test was carried out with five larvae per group in two replicates.

In the next test the test system is Musca domestica. As to the kind of experiment: Pesticidal test against Musca domestica (petri dish residue). The settings on record: 24 h, acetone solution dried in petri dish, female adults, 25° C., after 1 day, read-out: pesticidal rate. How it is done: Pesticidal Test Against Musca domestica
1 ml of an acetone solution in which a test compound had been diluted at a predetermined concentration was added dropwise to a petri dish having a diameter of 9 cm, and air-dried, and then the female adults of Musca domestica were released and the petri dish was capped. They were left to stand in a thermostatic chamber at 25° C., and the numbers of the living pests and the dead pests were examined after 1 day. The test was carried out with […] in two replicates.

`C/C(CCN(C(=O)c1ccccc1)c1cccc(C(=O)Nc2c(C)cc(C(F)(C(F)(F)F)C(F)(F)F)cc2C)c1)=N\O` [5-105, N-(3-(2,6-dimethyl-4-(perfluoropropan-2-yl)phenylcarbamoyl)phenyl)-N-(3-(hydroxyimino)butyl)benzamide]: the pest or weed control at 100 ppm with Spodoptera litura and in the test with Plutella xylostella was ≥ 70% in each case. For the same compound, the pest or weed control at 1000 ppm with Musca domestica is ≥ 70%.

With `COC(=O)CCN(C(=O)c1ccccc1)c1cccc(C(=O)Nc2c(I)cc(C(F)(C(F)(F)F)C(F)(F)F)cc2C(F)(F)F)c1` [5-80, methyl 3-(N-(3-(2-iodo-4-(perfluoropropan-2-yl)-6-(trifluoromethyl)phenylcarbamoyl)phenyl)benzamide)propanoate], the pest or weed control at 100 ppm in the test on Spodoptera litura and in the test with Plutella xylostella was ≥ 70% throughout. Besides, in the test with Musca domestica, the pest or weed control at 1000 ppm was ≥ 70%.

For the compound `Cc1cc(C(F)(C(F)(F)F)C(F)(F)F)cc(C)c1NC(=O)c1cccc(N(CCCC(N)=O)C(=O)c2ccccc2)c1` [6-16, N-(4-amino-4-oxobutyl)-N-(3-(2,6-dimethyl-4-(perfluoropropan-2-yl)phenylcarbamoyl)phenyl)benzamide], the pest or weed control at 100 ppm in the test with Spodoptera litura and in the test on Plutella xylostella was ≥ 70% in each case. Further, the pest or weed control at 1000 ppm in the test on Musca domestica is ≥ 70%.

For the compound `Cc1cc(C(F)(C(F)(F)F)C(F)(F)F)cc(C)c1NC(=O)c1cccc(N(CCC#N)C(=O)c2ccccc2)c1` [5-8, N-(2-cyanoethyl)-N-(3-(2,6-dimethyl-4-(perfluoropropan-2-yl)phenylcarbamoyl)phenyl)benzamide], the pest or weed control at 100 ppm in the test on Spodoptera litura and in the test on Plutella xylostella was ≥ 70% each time. Moreover, the pest or weed control at 1000 ppm in the test on Musca domestica is ≥ 70%.

Turning to `Cc1cc(C(F)(C(F)(F)F)C(F)(F)F)cc(C)c1N(CCC(N)=O)C(=O)c1cccc(NC(=O)c2ccccc2)c1` [7-1, N-(3-amino-3-oxopropyl)-3-benzamide-N-(2,6-dimethyl-4-(perfluoropropan-2-yl)phenyl)benzamide], the pest or weed control at 100 ppm in the test on Spodoptera litura and in the test on Plutella xylostella was ≥ 70% each time.

Turning to `Cc1cc(C(F)(C(F)(F)F)C(F)(F)F)cc(C)c1N(C)C(=O)c1cccc(N(CS(C)(=O)=O)C(=O)c2ccccc2)c1` [6-8, N-(2,6-dimethyl-4-(perfluoropropan-2-yl)phenyl)-N-methyl-3-(N-(methylsulfonylmethyl)benzamide)benzamide], the pest or weed control at 100 ppm with Spodoptera litura and with Plutella xylostella was ≥ 70% throughout.

With `Cc1cc(C(F)(C(F)(F)F)C(F)(F)F)cc(C)c1NC(=O)c1cccc(N(CC/C(N)=N/O)C(=O)c2ccccc2)c1` [5-91, N-(3-amino-3-(hydroxyimino)propyl)-N-(3-(2,6-dimethyl-4-(perfluoropropan-2-yl)phenylcarbamoyl)phenyl)benzamide], the pest or weed control at 100 ppm in the test on Spodoptera litura and in the test on Plutella xylostella was ≥ 70% each time.

With `Cc1cc(C(F)(C(F)(F)F)C(F)(F)F)cc(C)c1NC(=O)c1cccc(N(CCC(N)=O)C(=O)c2ccccc2)c1` [1-1, N-(3-amino-3-oxopropyl)-N-(3-(2,6-dimethyl-4-(perfluoropropan-2-yl)phenylcarbamoyl)phenyl)benzamide], the pest or weed control at 100 ppm in the test on Spodoptera litura and with Plutella xylostella was ≥ 70% throughout.

In the case of `Cc1cc(C(F)(C(F)(F)F)C(F)(F)F)cc(C)c1NC(=O)c1cccc(N(CCC(=O)OCC(NC(=O)OC(C)(C)C)C(=O)OC(C)(C)C)C(=O)c2ccccc2)c1` (stereo not drawn) [5-22, tert-butyl 2-(tert-butoxycarbonylamino)-3-(3-(N-(3-(2,6-dimethyl-4-(perfluoropropan-2-yl)phenylcarbamoyl)phenyl)benzamide)propanoyloxy)propanoate], the pest or weed control at 100 ppm in the test on Spodoptera litura and with Plutella xylostella was ≥ 70% each time.

Consider `CSCN(C(=O)c1ccccc1)c1cccc(C(=O)N(C)c2c(C)cc(C(F)(C(F)(F)F)C(F)(F)F)cc2C)c1` [6-6, N-(2,6-dimethyl-4-(perfluoropropan-2-yl)phenyl)-N-methyl-3-(N-(methylthiomethyl)benzamide)benzamide], for which the pest or weed control at 100 ppm with Spodoptera litura and with Plutella xylostella was ≥ 70% each time.
